Experimental data reported in US20220307066A1, “AN ENZYMATIC ASSAY TO MEASURE LONG-TERM ADHERENCE TO PRE EXPOSURE PROPHYLAXIS AND ANTIRETROVIRAL THERAPY” (University of Washington, priority 2019, published 2022).
Where “and” joins values, the source holds several entries; their conditions need not be identical. Equal values may be shown once. Read-outs that look alike come from different tables or passages of the source.

Columns and labels:
[1] = cited from earlier work
HIV-1 RT [2] = target: T1, HIV-1 RT (Human immunodeficiency virus type 1 group M subtype B, UniProt P04585); test: RESTRICT assay with TFV-DP spiked in diluted whole blood (0.25% final); type: biochemical; conditions: 0.25% blood, 100 nM dNTP, N = 4
T1 construct: Recombinant reverse transcriptase protein obtained through the NIH AIDS Reagent Program; purchased NIH AIDS Reagent Program, Division of AIDS, NIAID, NIH
Procedure: [sequence] assays were conducted with TFV-DP (166403-66-3, BOC Sciences Inc.) using 5 μL of DNA template, 5 μL of primer, 20 μL of dNTPs solution, 5 μL of TFV-DP, and 5 μL of HIV-1 RT. […] Serial dilutions of TFV-DP in buffer spanning a concentration range of 1-10,000 nM were prepared to span two orders of magnitude above and below the clinically relevant range for adherence measurement as described in pharmacokinetic studies. […] [sequence] assay optimization experiments were completed at 100, 300, 1560, and 6250 nM dNTP concentration.
Fluorescence from [sequence] assay data was normalized to allow comparison of data points gathered at different dNTP concentrations as follows,
HIV-negative, human whole blood (BioIVT, Westbury, N.Y.) was diluted in nuclease-free water (3098, Sigma) to lyse RBCs and reduce unwanted inhibition of RT activity by blood components such as immunoglobulins. Blood was mixed with the water by vortexing and incubating for 5 minutes to lyse RBCs.
Five μL of TFV-DP were spiked in 2% blood to 35 μL of master mix so that the final concentration of blood in the [sequence] assay was 0.25%. […]

HIV-1 RT [3] = target: T1, HIV-1 RT; test: RESTRICT assay on whole blood of study participants (clinical samples); type: biochemical
Text: The RESTRICT assay detects TFV-DP drug concentrations based on its mechanism of action on HIV RT. See examples above and Olanrewaju AO, et al. An enzymatic assay for rapid measurement of antiretroviral drug levels. ACS Sens. April 2020. TFV-DP causes chain termination when HIV RT synthesizes viral double stranded DNA (dsDNA). The RESTRICT assay provides all the reagents required for dsDNA synthesis—a DNA template, primers, nucleotides, recombinant HIV RT enzyme, and appropriate buffers—and measures TFV-DP concentrations in a patient's blood using intercalating fluorescence dyes based on the extent of DNA synthesis. At low TFV-DP concentrations, full-length dsDNA is formed and binds to many intercalating dye molecules resulting in high fluorescence. Meanwhile, at high TFV-DP concentrations, DNA chain termination occurs resulting in dsDNA fragments that bind to few intercalating dye molecules resulting in low fluorescence. Thus, the fluorescence readout from the RESTRICT assay was used to estimate TFV-DP concentration in a patient's blood. […]
The RESTRICT assay was completed in 5 simple steps. […] Then 5 μL of 100 nM of HIV-1 RT was added to initiate the assay which was incubated at 37° C. for 30 min in a microplate reader (SpectraMax iD3, Molecular Devices). […]

HIV-1 RT [4] = target: T1, HIV-1 RT; test: RESTRICT assay with TFV-DP in buffer at different dNTP concentrations; type: biochemical; conditions: 100, 300, 1560, 6250 nM dNTP, fixed 50 to 1 dNTP to template
Procedure: Optimal assay conditions were determined for RT activity in order to minimize assay time and reagent concentration, using RT enzyme obtained through the NIH AIDS Reagent Program, Division of AIDS, NIAID, NIH (Le Grice, S. F. J.; et al., Purification and Characterization of Human Immunodeficiency Virus Type 1 Reverse Transcriptase. In Methods in Enzymology; DNA Replication; Academic Press, 1995, 262, 130-144). Reactions were carried out in a buffer containing: 60 mM Tris (77-86-1, Sigma), 30 mM KCl (7447-40-7, Sigma), 8 mM MgCl2 (7786-30-3, Sigma), and 10 mM dithiothreitol (20-265, Sigma) buffered to pH 8.0 using HCl (7647-01-0, Acros Organics).
The DNA template has a 20 nt primer binding site complementary to the M13 phage DNA primer AGAGTTTGATCCTGGCTCAG (Catalog, Integrated DNA Technologies, Coralville, Iowa), set forth herein as SEQ ID NO:1, followed by TTCA repeats with a total template length of 200 nt. The DNA template was designed using NUPACK software (Zadeh, J. N. et al., NUPACK: Analysis and Design of Nucleic Acid Systems. J. Comput. Chem. 2011, 32 (1), 170-173) to preferentially include T bases because TFV-DP is a deoxyadenosine triphosphate (dATP) analog and thus will bind to T's in the DNA template. […]
Fluorescence from RESTRICT assay data was normalized to allow comparison of data points gathered at different dNTP concentrations as follows, […]

[5] = in vivo

C[C@H](Cn1cnc2c(N)ncnc21)OCP(=O)(O)O [TFV, tenofovir]
half-life ([1]; plasma): 15 h and 17 h
detectable for up to ([1]; urine): ≤ 7 days

CC(Cn1cnc2c(N)ncnc21)OCP(=O)(O)OP(=O)(O)OP(=O)(O)O (stereo in doubt) [TFV-DP, tenofovir diphosphate]
Normalized fluorescence (%) (HIV-1 RT [2]; TFV-DP 85.4 nM (16.9 fmol/10^6 RBCs, low adherence, 1 dose per week)): 89.0%
Normalized fluorescence (%) (HIV-1 RT [2]; TFV-DP 768 nM (152.3 fmol/10^6 RBCs, high adherence, 7 doses per week)): 57.5%
Median fluorescence, RESTRICT assay (HIV-1 RT [3]; samples containing <700 fmol/punch TFV-DP (N=14)): 51.3%
Median fluorescence, RESTRICT assay (HIV-1 RT [3]; samples containing ≥700 fmol/punch TFV-DP (N=4)): 31.9%
Median TFV-DP concentrations in RBCs ([1]; depending on adherence, LC/MS): 15-170 fmol/10^6 RBCs
accumulation in red blood cells (RBCs) ([1]; in vivo): 25 fold
half-life ([1]; red blood cells): 408 h
IC50 of inhibition curve as dNTP concentration increases (HIV-1 RT [4]): shift right, towards higher IC50 values
clinical range for TFV-DP adherence, concentration in whole blood [5]: 75 to 850 nM
